{"source": "ChEMBL document CHEMBL4507283", "about": "“Data for DCP probe BI-1935” (2021)", "key": {"[1]": {"biological_target": "Mitogen-activated protein kinase 1 (Homo sapiens) (UniProt P28482)", "details": "Compound concentration 1000.0 nM"}, "[2]": {"biological_target": "3-phosphoinositide-dependent protein kinase 1 (Homo sapiens) (UniProt O15530)", "sequence (O15530 whole entry)": "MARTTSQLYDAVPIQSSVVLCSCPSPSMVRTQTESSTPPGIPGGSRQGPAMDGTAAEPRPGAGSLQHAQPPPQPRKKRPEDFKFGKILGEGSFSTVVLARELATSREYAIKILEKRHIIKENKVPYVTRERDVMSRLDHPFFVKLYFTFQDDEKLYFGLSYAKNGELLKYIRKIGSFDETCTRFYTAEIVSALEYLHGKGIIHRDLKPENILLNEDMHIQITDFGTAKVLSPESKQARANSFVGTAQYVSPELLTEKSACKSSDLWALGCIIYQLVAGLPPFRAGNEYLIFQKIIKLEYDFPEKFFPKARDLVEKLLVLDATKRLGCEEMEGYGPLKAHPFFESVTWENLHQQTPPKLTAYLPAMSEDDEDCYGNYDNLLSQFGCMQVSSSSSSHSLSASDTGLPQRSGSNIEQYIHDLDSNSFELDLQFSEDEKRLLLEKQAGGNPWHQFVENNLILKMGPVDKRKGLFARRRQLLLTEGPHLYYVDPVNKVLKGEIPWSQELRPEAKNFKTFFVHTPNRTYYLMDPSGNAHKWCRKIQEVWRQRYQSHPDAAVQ", "details": "Compound concentration 1000.0 nM"}, "[3]": {"biological_target": "Ribosomal protein S6 kinase alpha-6 (Homo sapiens) (UniProt Q9UK32)", "details": "Compound concentration 1000.0 nM"}, "[4]": {"tested_on": "Fibroblast growth factor receptor 3 (Homo sapiens), P22607 [G697C]", "details": "Compound concentration 1000.0 nM"}, "[5]": {"biological_target": "Cyclin-dependent kinase 19 (Homo sapiens) (UniProt Q9BWU1)", "details": "Compound concentration 1000.0 nM"}, "[6]": {"tested_on": "Tyrosine-protein kinase ABL1 (Homo sapiens), P00519 [M351T]", "details": "Compound concentration 1000.0 nM"}, "[7]": {"biological_target": "T1, Bifunctional epoxide hydrolase 2 (Homo sapiens, UniProt P34913)", "T1 sequence (P34913 whole entry)": "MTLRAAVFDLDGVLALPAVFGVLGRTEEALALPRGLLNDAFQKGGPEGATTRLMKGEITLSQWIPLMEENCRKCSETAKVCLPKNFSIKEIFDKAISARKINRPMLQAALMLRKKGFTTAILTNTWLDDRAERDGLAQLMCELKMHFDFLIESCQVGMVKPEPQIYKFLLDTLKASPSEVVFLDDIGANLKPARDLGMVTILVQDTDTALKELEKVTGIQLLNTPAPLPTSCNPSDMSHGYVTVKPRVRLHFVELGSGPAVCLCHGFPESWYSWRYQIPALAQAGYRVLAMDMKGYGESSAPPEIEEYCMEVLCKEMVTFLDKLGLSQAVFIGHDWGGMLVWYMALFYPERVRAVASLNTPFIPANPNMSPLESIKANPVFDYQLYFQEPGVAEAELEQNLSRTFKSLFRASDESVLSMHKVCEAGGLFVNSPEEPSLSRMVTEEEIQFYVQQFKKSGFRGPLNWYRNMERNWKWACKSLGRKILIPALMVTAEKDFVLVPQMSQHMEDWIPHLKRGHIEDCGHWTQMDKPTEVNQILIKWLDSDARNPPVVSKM", "assay": "Cellular assay"}, "[8]": {"biological_target": "Muscarinic acetylcholine receptor M3 (Homo sapiens) (UniProt P20309)", "details": "Compound concentration 10.0 uM"}, "[9]": {"biological_target": "Mitogen-activated protein kinase kinase kinase 14 (Homo sapiens) (UniProt Q99558)", "details": "Compound concentration 1000.0 nM"}, "[10]": {"biological_target": "Beta-1 adrenergic receptor (Homo sapiens) (UniProt P08588)", "details": "Compound concentration 10.0 uM"}, "[11]": {"tested_on": "Epidermal growth factor receptor (Homo sapiens), P00533 [UNDEFINED MUTATION]", "details": "Compound concentration 1000.0 nM"}, "[12]": {"biological_target": "Cyclin-dependent kinase 17 (Homo sapiens) (UniProt Q00537)", "details": "Compound concentration 1000.0 nM"}, "[13]": {"biological_target": "Cyclin-dependent kinase 15 (Homo sapiens) (UniProt Q96Q40)", "details": "Compound concentration 1000.0 nM"}, "[14]": {"biological_target": "Epithelial discoidin domain-containing receptor 1 (Homo sapiens) (UniProt Q08345)", "details": "Compound concentration 1000.0 nM"}, "[15]": {"biological_target": "Serine/threonine-protein kinase LATS2 (Homo sapiens) (UniProt Q9NRM7)", "sequence (Q9NRM7 whole entry)": "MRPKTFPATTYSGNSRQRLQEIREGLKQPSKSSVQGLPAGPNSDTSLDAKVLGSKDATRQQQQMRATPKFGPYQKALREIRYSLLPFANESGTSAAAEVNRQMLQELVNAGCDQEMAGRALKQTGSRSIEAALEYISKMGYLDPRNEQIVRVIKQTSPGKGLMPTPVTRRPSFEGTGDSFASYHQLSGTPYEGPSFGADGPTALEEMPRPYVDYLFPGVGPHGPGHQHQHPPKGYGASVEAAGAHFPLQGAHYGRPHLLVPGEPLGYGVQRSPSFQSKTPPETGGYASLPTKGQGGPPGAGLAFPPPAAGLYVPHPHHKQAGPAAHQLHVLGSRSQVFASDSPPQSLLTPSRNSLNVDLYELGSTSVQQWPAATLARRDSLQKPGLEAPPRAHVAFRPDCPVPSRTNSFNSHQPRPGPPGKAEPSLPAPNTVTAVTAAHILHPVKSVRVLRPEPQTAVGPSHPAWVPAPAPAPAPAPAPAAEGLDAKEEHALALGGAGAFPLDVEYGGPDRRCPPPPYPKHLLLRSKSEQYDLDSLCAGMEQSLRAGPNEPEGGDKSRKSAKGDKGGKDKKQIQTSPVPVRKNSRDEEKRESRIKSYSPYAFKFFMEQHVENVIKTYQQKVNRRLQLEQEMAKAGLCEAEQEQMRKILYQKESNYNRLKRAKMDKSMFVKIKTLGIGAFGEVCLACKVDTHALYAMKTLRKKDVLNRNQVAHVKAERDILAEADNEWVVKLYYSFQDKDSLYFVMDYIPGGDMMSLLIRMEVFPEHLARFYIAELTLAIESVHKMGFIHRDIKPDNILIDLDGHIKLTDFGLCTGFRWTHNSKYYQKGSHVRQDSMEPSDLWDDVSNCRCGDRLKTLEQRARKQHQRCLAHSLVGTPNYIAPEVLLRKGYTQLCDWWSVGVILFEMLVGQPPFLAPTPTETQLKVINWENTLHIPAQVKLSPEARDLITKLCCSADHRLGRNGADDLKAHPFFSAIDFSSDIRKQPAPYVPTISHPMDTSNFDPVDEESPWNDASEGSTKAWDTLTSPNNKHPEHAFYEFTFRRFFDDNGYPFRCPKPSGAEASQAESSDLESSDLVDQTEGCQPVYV", "details": "Compound concentration 1000.0 nM"}, "[16]": {"biological_target": "Ephrin type-A receptor 6 (Homo sapiens) (UniProt Q9UF33)", "details": "Compound concentration 1000.0 nM"}, "[17]": {"biological_target": "Cyclin-dependent kinase 18 (Homo sapiens) (UniProt Q07002)", "sequence (Q07002 whole entry)": "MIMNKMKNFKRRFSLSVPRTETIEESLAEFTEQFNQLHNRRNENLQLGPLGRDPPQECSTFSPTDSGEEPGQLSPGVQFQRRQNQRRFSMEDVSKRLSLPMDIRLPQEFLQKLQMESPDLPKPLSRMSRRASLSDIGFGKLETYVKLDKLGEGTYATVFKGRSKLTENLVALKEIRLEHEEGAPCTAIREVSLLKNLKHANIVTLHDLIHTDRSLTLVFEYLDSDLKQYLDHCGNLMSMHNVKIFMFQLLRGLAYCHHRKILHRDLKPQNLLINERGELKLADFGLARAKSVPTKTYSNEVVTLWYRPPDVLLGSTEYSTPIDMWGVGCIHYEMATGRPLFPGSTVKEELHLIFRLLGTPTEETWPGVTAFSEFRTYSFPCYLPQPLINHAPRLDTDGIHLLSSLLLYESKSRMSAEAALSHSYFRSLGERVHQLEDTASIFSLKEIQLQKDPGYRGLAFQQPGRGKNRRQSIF", "details": "Compound concentration 1000.0 nM"}, "[18]": {"tested_on": "Epidermal growth factor receptor (Homo sapiens), P00533 [L858R]", "details": "Compound concentration 1000.0 nM"}, "[19]": {"biological_target": "Mast/stem cell growth factor receptor Kit (Homo sapiens) (UniProt P10721)", "details": "Compound concentration 1000.0 nM"}, "[20]": {"biological_target": "Sodium-dependent noradrenaline transporter (Homo sapiens) (UniProt P23975)", "sequence (P23975 whole entry)": "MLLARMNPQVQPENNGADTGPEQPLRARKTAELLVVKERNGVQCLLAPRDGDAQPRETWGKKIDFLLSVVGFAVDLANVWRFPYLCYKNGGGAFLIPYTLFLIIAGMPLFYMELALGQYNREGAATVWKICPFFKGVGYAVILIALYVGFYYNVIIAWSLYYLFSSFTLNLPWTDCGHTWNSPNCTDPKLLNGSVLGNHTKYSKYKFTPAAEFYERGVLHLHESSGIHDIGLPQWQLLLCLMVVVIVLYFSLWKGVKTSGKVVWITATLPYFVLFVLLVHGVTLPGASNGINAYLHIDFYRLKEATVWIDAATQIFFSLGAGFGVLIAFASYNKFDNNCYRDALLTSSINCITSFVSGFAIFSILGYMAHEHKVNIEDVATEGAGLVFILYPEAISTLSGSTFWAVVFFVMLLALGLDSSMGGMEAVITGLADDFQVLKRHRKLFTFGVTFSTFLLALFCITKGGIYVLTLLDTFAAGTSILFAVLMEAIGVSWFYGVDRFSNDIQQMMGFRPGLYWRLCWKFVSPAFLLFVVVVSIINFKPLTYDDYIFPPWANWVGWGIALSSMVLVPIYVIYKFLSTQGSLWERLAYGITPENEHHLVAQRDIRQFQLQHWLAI", "details": "Compound concentration 10.0 uM"}, "[21]": {"biological_target": "Serine/threonine-protein kinase 17A (Homo sapiens) (UniProt Q9UEE5)", "details": "Compound concentration 1000.0 nM"}, "[22]": {"biological_target": "Ephrin type-A receptor 5 (Homo sapiens) (UniProt P54756)", "details": "Compound concentration 1000.0 nM"}, "[23]": {"biological_target": "Serine/threonine-protein kinase Nek10 (Homo sapiens) (UniProt Q6ZWH5)", "details": "Compound concentration 1000.0 nM"}, "[24]": {"biological_target": "Prostaglandin G/H synthase 1 (Homo sapiens) (UniProt P23219)", "sequence (P23219 whole entry)": "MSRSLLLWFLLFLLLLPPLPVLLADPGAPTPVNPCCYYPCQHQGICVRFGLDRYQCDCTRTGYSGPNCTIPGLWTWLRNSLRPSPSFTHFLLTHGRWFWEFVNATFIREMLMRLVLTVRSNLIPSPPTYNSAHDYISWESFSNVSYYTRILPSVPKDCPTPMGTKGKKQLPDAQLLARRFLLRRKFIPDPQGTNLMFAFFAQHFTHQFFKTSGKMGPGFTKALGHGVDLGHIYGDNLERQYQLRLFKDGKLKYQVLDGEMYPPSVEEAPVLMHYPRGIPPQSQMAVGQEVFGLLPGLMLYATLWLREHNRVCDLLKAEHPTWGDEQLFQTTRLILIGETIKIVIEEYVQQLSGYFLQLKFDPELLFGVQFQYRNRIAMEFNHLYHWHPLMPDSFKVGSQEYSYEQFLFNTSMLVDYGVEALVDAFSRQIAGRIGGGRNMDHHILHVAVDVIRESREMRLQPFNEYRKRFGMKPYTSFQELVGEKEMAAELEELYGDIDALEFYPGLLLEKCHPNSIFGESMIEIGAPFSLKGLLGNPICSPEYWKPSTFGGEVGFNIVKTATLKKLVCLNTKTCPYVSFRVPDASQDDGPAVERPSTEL", "assay": "COX-1 Eurofins-Panlabs selectivity data (BI)", "details": "Compound concentration 10.0 uM"}, "[25]": {"biological_target": "5-hydroxytryptamine receptor 1A (Homo sapiens) (UniProt P08908)", "sequence (P08908 whole entry)": "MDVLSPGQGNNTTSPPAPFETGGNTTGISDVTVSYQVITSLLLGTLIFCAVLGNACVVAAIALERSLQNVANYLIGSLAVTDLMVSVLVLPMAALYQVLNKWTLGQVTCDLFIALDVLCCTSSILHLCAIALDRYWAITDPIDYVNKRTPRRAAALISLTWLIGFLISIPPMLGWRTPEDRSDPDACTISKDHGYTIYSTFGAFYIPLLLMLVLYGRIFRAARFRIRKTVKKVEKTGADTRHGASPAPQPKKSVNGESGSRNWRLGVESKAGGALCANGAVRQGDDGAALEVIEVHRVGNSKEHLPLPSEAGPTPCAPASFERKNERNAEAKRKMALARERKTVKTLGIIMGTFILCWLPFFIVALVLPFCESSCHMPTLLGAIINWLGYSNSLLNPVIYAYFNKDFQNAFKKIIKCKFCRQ", "details": "Compound concentration 10.0 uM"}, "[26]": {"biological_target": "Inhibitor of nuclear factor kappa-B kinase subunit epsilon (Homo sapiens) (UniProt Q14164)", "details": "Compound concentration 1000.0 nM"}, "[27]": {"biological_target": "Glycogen synthase kinase-3 alpha (Homo sapiens) (UniProt P49840)", "details": "Compound concentration 1000.0 nM"}, "[28]": {"biological_target": "Mitogen-activated protein kinase 6 (Homo sapiens) (UniProt Q16659)", "details": "Compound concentration 1000.0 nM"}, "[29]": {"tested_on": "Tyrosine-protein kinase ABL1 (Homo sapiens), P00519 [F317L]", "details": "Compound concentration 1000.0 nM"}, "[30]": {"biological_target": "Serine/threonine-protein kinase ULK2 (Homo sapiens) (UniProt Q8IYT8)", "details": "Compound concentration 1000.0 nM"}, "[31]": {"biological_target": "Serine/threonine-protein kinase NLK (Homo sapiens) (UniProt Q9UBE8)", "sequence (Q9UBE8 whole entry)": "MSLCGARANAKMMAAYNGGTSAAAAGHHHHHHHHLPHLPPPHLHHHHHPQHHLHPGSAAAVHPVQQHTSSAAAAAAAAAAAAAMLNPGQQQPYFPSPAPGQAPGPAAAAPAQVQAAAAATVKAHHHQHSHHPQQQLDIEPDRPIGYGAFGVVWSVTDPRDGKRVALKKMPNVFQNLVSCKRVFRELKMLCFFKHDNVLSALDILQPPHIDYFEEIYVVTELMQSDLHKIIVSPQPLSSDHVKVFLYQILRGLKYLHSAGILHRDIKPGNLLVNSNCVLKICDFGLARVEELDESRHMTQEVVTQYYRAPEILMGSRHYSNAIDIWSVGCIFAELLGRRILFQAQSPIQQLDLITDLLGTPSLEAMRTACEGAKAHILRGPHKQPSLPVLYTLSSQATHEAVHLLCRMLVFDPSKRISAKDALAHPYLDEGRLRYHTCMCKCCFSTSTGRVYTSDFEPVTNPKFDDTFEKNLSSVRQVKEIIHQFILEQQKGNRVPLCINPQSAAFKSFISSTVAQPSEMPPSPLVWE", "details": "Compound concentration 1000.0 nM"}, "[32]": {"biological_target": "Aurora kinase C (Homo sapiens) (UniProt Q9UQB9)", "details": "Compound concentration 1000.0 nM"}, "[33]": {"biological_target": "Tyrosine-protein kinase Srms (Homo sapiens) (UniProt Q9H3Y6)", "details": "Compound concentration 1000.0 nM"}, "[34]": {"biological_target": "Serine/threonine-protein kinase D1 (Homo sapiens) (UniProt Q15139)", "details": "Compound concentration 1000.0 nM"}, "[35]": {"tested_on": "Epidermal growth factor receptor (Homo sapiens), P00533 [UNDEFINED MUTATION]", "details": "Compound concentration 1000.0 nM", "remark": "listed apart in the source"}, "[36]": {"biological_target": "Mitogen-activated protein kinase 8 (Homo sapiens) (UniProt P45983)", "details": "Compound concentration 1000.0 nM"}, "[37]": {"biological_target": "Muscarinic acetylcholine receptor M2 (Homo sapiens) (UniProt P08172)", "sequence (P08172 whole entry)": "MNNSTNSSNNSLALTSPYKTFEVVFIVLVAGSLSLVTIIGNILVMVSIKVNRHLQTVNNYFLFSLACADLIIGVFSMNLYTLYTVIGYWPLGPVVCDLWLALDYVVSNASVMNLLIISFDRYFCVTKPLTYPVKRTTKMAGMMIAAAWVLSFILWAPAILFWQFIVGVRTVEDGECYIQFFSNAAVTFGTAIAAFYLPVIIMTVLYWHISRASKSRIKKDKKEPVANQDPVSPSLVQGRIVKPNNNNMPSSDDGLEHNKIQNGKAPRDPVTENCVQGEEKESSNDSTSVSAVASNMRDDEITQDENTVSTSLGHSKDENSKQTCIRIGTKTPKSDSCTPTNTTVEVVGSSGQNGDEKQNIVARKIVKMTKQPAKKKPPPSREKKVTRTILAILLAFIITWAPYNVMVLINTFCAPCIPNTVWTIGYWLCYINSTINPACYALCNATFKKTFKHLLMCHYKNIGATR", "details": "Compound concentration 10.0 uM"}, "[38]": {"biological_target": "Proto-oncogene tyrosine-protein kinase receptor Ret (Homo sapiens) (UniProt P07949)", "details": "Compound concentration 1000.0 nM"}}, "note": "The source made the active and inactive calls. The rule behind the calls is not given here."}
{"molecule": "CCOCCn1cc(C(=O)Nc2ccc(-n3nc(-c4cccnc4)cc3C(F)(F)F)cn2)ccc1=O", "note": "[BI 1935]", "values": [{"measurement": "residual activity", "setting": "[1]", "result": 100, "unit": "%"}, {"measurement": "residual activity", "setting": "[2]", "result": 87, "unit": "%"}, {"measurement": "residual activity", "setting": "[3]", "result": 81, "unit": "%"}, {"measurement": "residual activity", "setting": "[4]", "result": 100, "unit": "%"}, {"measurement": "residual activity", "setting": "[5]", "result": 95, "unit": "%"}, {"measurement": "residual activity", "setting": "[6]", "result": 100, "unit": "%"}, {"measurement": "IC50", "setting": "[7]", "result": "< 1 nM (active)"}, {"measurement": "inhibition", "setting": "[8]", "result": 10.2, "unit": "%"}, {"measurement": "residual activity", "setting": "[9]", "result": 69, "unit": "%"}, {"measurement": "inhibition", "setting": "[10]", "result": -9.69, "unit": "%"}, {"measurement": "residual activity", "setting": "[11]", "result": 98, "unit": "%"}, {"measurement": "residual activity", "setting": "[12]", "result": 96, "unit": "%"}, {"measurement": "residual activity", "setting": "[13]", "result": 100, "unit": "%"}, {"measurement": "residual activity", "setting": "[14]", "result": 69, "unit": "%"}, {"measurement": "residual activity", "setting": "[15]", "result": 65, "unit": "%"}, {"measurement": "residual activity", "setting": "[16]", "result": 93, "unit": "%"}, {"measurement": "residual activity", "setting": "[17]", "result": 98, "unit": "%"}, {"measurement": "residual activity", "setting": "[18]", "result": 90, "unit": "%"}, {"measurement": "residual activity", "setting": "[19]", "result": 89, "unit": "%"}, {"measurement": "inhibition", "setting": "[20]", "result": -7.51, "unit": "%"}, {"measurement": "residual activity", "setting": "[21]", "result": 100, "unit": "%"}, {"measurement": "residual activity", "setting": "[22]", "result": 100, "unit": "%"}, {"measurement": "residual activity", "setting": "[23]", "result": 94, "unit": "%"}, {"measurement": "residual activity", "setting": "[24]", "result": 163, "unit": "%"}, {"measurement": "inhibition", "setting": "[25]", "result": 13.9, "unit": "%"}, {"measurement": "residual activity", "setting": "[26]", "result": 79, "unit": "%"}, {"measurement": "residual activity", "setting": "[27]", "result": 100, "unit": "%"}, {"measurement": "residual activity", "setting": "[28]", "result": 100, "unit": "%"}, {"measurement": "residual activity", "setting": "[29]", "result": 100, "unit": "%"}, {"measurement": "residual activity", "setting": "[30]", "result": 74, "unit": "%"}, {"measurement": "residual activity", "setting": "[31]", "result": 47, "unit": "%"}, {"measurement": "residual activity", "setting": "[32]", "result": 88, "unit": "%"}, {"measurement": "residual activity", "setting": "[33]", "result": 79, "unit": "%"}, {"measurement": "residual activity", "setting": "[34]", "result": 100, "unit": "%"}, {"measurement": "residual activity", "setting": "[35]", "result": 92, "unit": "%"}, {"measurement": "residual activity", "setting": "[36]", "result": 72, "unit": "%"}, {"measurement": "inhibition", "setting": "[37]", "result": -3, "unit": "%"}, {"measurement": "residual activity", "setting": "[38]", "result": 83, "unit": "%"}]}
